Data: patent US5563142A, “Diaromatic substituted compounds as anti-HIV-1 agents” (The Upjohn Company, priority 1994, dated 1996)

Key:
[1] = tested on: HIV in primary human peripheral blood lymphocytes; assay: Primary PBL assay: inhibition of viral replication (p24 & RNA); assay type: cell-based; details: Human immunodeficiency virus 1, Lymphocyte, primary human lymphocytes infected with HIV, days three and four, read-out: PBL INHIBITION OF VIRAL REPLICATION (p24 & RNA) ED50
Method: ^3 The utility of the compounds of the invention is further
infection in primary peripheral blood lymphocytes (primary PBL assay). Th
primary PBL assay offers the following advantages:
(a) The assays are performed with primary human lymphocytes. Thereby,
undesired testing of transformed cell lines is avoided in which host cell
and virus may have undergone processes of mutual adaptation. Performance
of cell culture in serum containing media closely mimics the in vivo
situation. (b) The primary PBL assay distinguishes between true antiviral
effect which is due to the drug and cytostatic/cytotoxic reactions. (c)
Viral replication is precisely followed by kinetic measurement of viral
nucleic acids and proteins. (d) Nucleic acids (total HIVRNA intra and
extracellular) and protein (secreted p24) are measured in parallel which
permits one to differentiate between the compound's effect on virus
replication and on the expression of viral proteins. This leads to
additional information regarding the efficacy of the test compound. (e)
Tolerance of the cell culture against low amounts of organic solvents als
permits the investigation of hydrophobic substances. (f) The dose of the
drug causing half maximal suppression of virus replication is determined.
(g) The screening system is standardized and automated to a high degree.
The primary PBL assay uses the following procedure:
Effects of the compounds of the invention on cell proliferation are determined by lymphocyte proliferation assays. Starting with a 100 micromolar solution, the compound is serially diluted 10 fold. One tenth of the concentration of a compound causing half maximal inhibition of cellular proliferation is employed for all subsequent testing.
Peripheral human lymphocytes are isolated by density gradient centrifugation. After stimulation by mitogen the cells are infected with a standardized preparation of HIV. Subsequently, the infected cells are cultured in the presence of the drug for four days. Individual cultures are established to measure viral replication three and four days following infection. Untreated cells and AZT-treated cells are included as controls in parallel with the drugs under investigation.
The amount of viral core protein p24 synthesized and release by the infected cells is determined in the supernatant by the capture-ELISA technique on days three and four. By comparing with a standard preparation, the amount of protein produced by the virus infected cells is quantified.
The total amount of viral RNA synthesized by the infected lymphocytes is determined by a special nucleic acid hybridization on days three and four of culture. By including a standard preparation of HIV-RNA the amount of synthesized RNA is quantified.
In addition, viability of HIV-infected cells is determined in parallel with assays for viral p24 and RNA. In order to evaluate the half maximal antiviral effect of the drug, a concentration dependency of the drug action is measured.
Numerous examples of the compounds of the invention are assayed according to this procedure. The anti-HIV activity, as measured by the inhibition of the release of core p24 protein in HIV infected human lymphocytes, is used to calculate ED50 -antiviral (the concentration required to give a 50% reduction in p24 synthesis).

[2] = target: T1, viral reverse transcriptase (Human immunodeficiency virus type 1 group M subtype B, UniProt P04585); assay: Viral reverse transcriptase inhibition, cell free assay; assay type: biochemical, human immunodeficiency virus (HIV-1); details: read-out: RT % INHIBITION (100 μM), 100 μM; poly rC or poly rG template
T1 construct: Viral reverse transcriptase is found in extracts from bacterial clones; made in house; host or cells: Escherichia coli (extracts of bacterial clones, by the procedure of Larder et al., EMBO J. 6:3133-3137, 1987)
Text: The utility of the diaromatic substituted piperazines (III), the anti-AIDS piperazines (IV) and the indoles (V) of this invention can be determined by their ability to inhibit viral reverse transcriptase, an enzyme essential for human immunodeficiency virus replication. This enzyme has characteristics which differentiate it from other known cellular polymerases and it is a unique enzyme which is not found in uninfected cells. Viral reverse transcriptase is found in extracts from bacterial clones prepared according to the procedure described in AIDS Virus Reverse Transcriptase defined by high level expression in Escherichia coli, EMBO J. 6:3133-3137 (1987). Inhibition of this enzyme is determined in a cell free assay which measures the level of radioactive precursors incorporated into DNA. Extracts prepared according to the procedure of Science, 1125-1129 (1981) are incubated in a mixture of inhibitor, 20 mM dithiothreitol, 60 mM sodium chloride, 0.05% NP-40, 10 mM magnesium chloride, 50 mM Tris pH 8.3, 10 μM [^35 S]-labeled deoxynuleoside-5'-triphosphate, 10 μg/ml RNA template (poly rC or poly rG) and 5 μg/ml DNA primer (oligo dG or oligo dT) for 30 minutes at 37° C. Incorporation of radio-labeled percursor is determined by spotting aliquots of the reaction mixture on DE81 paper, washing the papers to remove unincorporated percursor, drying and determining counts. The results (IC50 means the concentration, in μM of drug, required to inhibit the reverse transcriptase activity to the extent of 50%) of various assay(s) are combined and reported as % inhibition and IC50 (calculated).
^1 Viral reverse transcriptase is found in extracts from bacterial
clones prepared according to the procedure described by Larder, B.,
Purifoy D., Powell, K. and Darby, G., AIDS virus reverse transcriptase
defined by high level expression in Escherichia coli., EMBO J. 6,
3133-3137 (1987). Inhibition of this enzyme is determined in a cell free
assay which measures the level of radioactive precursors incorporated int
DNA. Extracts prepared according to the procedure of Kleid, D. G., et
al., Science, 1125-1129 (1981) are incubated in a mixture of inhibitor, 2
mM dithiothreitol, 60 mM sodium chloride, 0.05% NP40, 10 mM magnesium
chloride, 50 mM Tris pH 8.3, 10 μM [^35 Slabeled
deoxynucleoside5triphosphate, 10 μg/ml RNA template (poly rC or poly
rG) and 5 μg/ml DNA primer (oligo dG or oligo dT) for 15 minutes at
37°. Incorporation of radio labeled precursor is determined by
harvesting the trichloroacetic acid precipitated reaction mixtures on
glass fiber filters, drying, and determining counts. The results of
various assays are combined and reported as % inhibition at a 100 μM

Structure (SMILES)	EC50 [1]	inhibition at 100 µM [2]
CNc1cccnc1N1CCN(C(=O)c2cc3cc(F)ccc3[nH]2)CC1 [Example 63, 1-(5-Fluoroindolyl-2-carbonyl)-4-[3-methylamino-2-pyridinyl]piperazine]	1000 nM	82 to 88%
CNc1cccnc1N1CCN(C(=O)c2cc3cc(OC)ccc3[nH]2)CC1 [Example 64, 1-(5-Methoxyindolyl-2-carbonyl)-4-[3-(methylamino)-2-pyridinyl]piperazine]	≤ 1000 nM	88 to 94%
CNc1cccnc1N1CCN(C(=O)c2cc3ccccc3[nH]2)CC1 [Example 65, 1-(Indolyl-2-carbonyl)-4-[3-(methylamino)-2-pyridinyl]piperazine]	≤ 1 nM	81 to 93%
CC(C)Nc1cccnc1N1CCN(C(=O)c2ccc[nH]2)CC1 [Example 69, 1-[Pyrrolyl-2-carbonyl]-4-[3-(1-methylethylamino)-2-pyridinyl]piperazine]	100 nM	95%
CCNc1cccnc1N1CCN(C(=O)c2cc3ccc(OC)c(C)c3[nH]2)CC1 [Example 71, 1-[6-Methoxy-7-methylindolyl-2-carbonyl]-4-(3-ethylamino-2-pyridinyl)piperazine]	10 to 100 nM	88 to 95%
COc1cc2cc(C(=O)N3CCN(c4ncccc4NC(C)C)CC3)[nH]c2cc1OC [Example 72, 1-[5,6-Dimethoxyindolyl-2-carbonyl]-4-[3-(1-methylethylamino)-2-pyridinyl]piperazine]	< 10 nM	43 to 66%
Cc1c(C(=O)N2CCN(c3ncccc3NC(C)C)CC2)[nH]c2ccccc12 [Example 73, 1-[3-methylindolyl-2-carbonyl]-4-[3-(1-methylethylamino)-2-pyridinyl]piperazine]	< 1 nM	94 to 95%
CC(C)Nc1cc(F)ccc1N1CCN(C(=O)c2cc3ccccc3[nH]2)CC1 [Example 74, 1-[Indolyl-2-carbonyl]-4-[2-(1-methylethylamino)-4-fluorophenyl]piperazine]	10 to 100 nM	82 to 84%
CC(C)Nc1ccc(F)cc1N1CCN(C(=O)c2cc3ccccc3[nH]2)CC1 [Example 75, 1-[Indolyl-2-carbonyl]-4-[2-(1-methylethylamino)-5-fluorophenyl]piperazine]	10 to 100 nM	77%
O=C(c1cc2ccccc2[nH]1)N1CCN(c2ncccc2N2CCCC2)CC1 [Example 76, 1-[Indolyl-2-carbonyl]-4-[3-(1-pyrrolidinyl)-2-pyridinyl]piperazine]	100 to 1000 nM	65 to 76%
CC(C)Nc1cccnc1N1CCCN(C(=O)c2cc3cc(F)ccc3[nH]2)CC1 [Example 84]	< 1 nM	97%
COc1ccc2cc(C(=O)N3CCN(c4ncccc4NC(C)C)CC3)[nH]c2c1 [Example 87, 1-[6-Methoxyindolyl-2-carbonyl]-4-[3-(1-methylethylamino)-2-pyridinyl]-piperazine]	10 nM	96 to 98%
COc1cccc2[nH]c(C(=O)N3CCN(c4ncccc4NC(C)C)CC3)cc12 [Example 88, 1-[4-Methoxyindolyl-2-carbonyl]-4-[3-(1-methylethylamino)-2-pyridinyl]piperazine]	100 nM	56 to 88%
Cc1ccc2[nH]c(C(=O)N3CCN(c4ncccc4NC(C)C)CC3)cc2c1 [Example 89, 1-[5-Methylindolyl-2-carbonyl]-4-[3-(1-methylethylamino)-2-pyridinyl]piperazine]	100 nM	61 to 74%
CC(C)Nc1cccnc1N1CCN(C(=O)c2cc3cc4c(cc3[nH]2)OCO4)CC1 [Example 90, 1-[5,6-Methylenedioxyindolyl-2-carbonyl]-4-[3-(1-methylethylamino)-2-pyridinyl]piperazine]	< 1 nM	96%
COc1cc2[nH]c(C(=O)N3CCN(c4ncccc4NC(C)C)CC3)cc2cc1F [Example 91, 1-[5-Fluoro-6-methoxyindolyl-2-carbonyl]-4-[3-(1-methylethylamino)-2-pyridinyl]piperazine]	100 nM	85 to 91%
COc1ccc2cc(C(=O)N3CCN(c4ncccc4NC(C)C)CC3)[nH]c2c1Br [Example 92, 1-[7-Bromo-6-methoxyindolyl-2-carbonyl]-4-[3-(1-methylethyl-amino)-2-pyridinyl]piperazine]	100 to 1000 nM	94%
COc1cc2[nH]c(C(=O)N3CCN(c4ncccc4NC(C)C)CC3)cc2cc1Br [Example 94, 1-[5-Bromo-6-methoxyindolyl-2-carbonyl]-4-[3-(1-methylethylamino)-2-pyridinyl]piperazine]	10 to 100 nM	85%
CC(C)Nc1cccnc1N1CCN(C(=O)c2cc3ccc(N(C)C)cc3[nH]2)CC1 [Example 95, 1-[6-(N,N-Dimethylamino)indolyl-2-carbonyl]-4-[3-(1-methylethylamino)-2-pyridinyl]piperazine]	< 1 nM	81 to 93%
Cc1cccc2[nH]c(C(=O)N3CCN(c4ncccc4NC(C)C)CC3)cc12 [Example 97, 1-[4-Methylindolyl-2-carbonyl]-4-[3-(1-methylethylamino)-2pyridinyl]-piperazine]	≤ 10 nM	52 to 80%
CCC(C)Nc1cccnc1N1CCN(C(=O)c2cc3ccccc3[nH]2)CC1 (stereo not shown) [Example 99]	1 to 10 nM	93 to 95%
CC(C)Nc1cccnc1N1CCN(C(=O)c2cc3cc(N)ccc3[nH]2)CC1 [Example 101, 1-[5-Aminoindolyl-2-carbonyl]-4-[3-(1-methylethylamino)-2-pyridinyl]-piperazine]	10 nM	93 to 96%
CC(C)(C)CNc1cccnc1N1CCN(C(=O)c2cc3cc(F)ccc3[nH]2)CC1 [Example 102, 1-[5-Fluoroindolyl-2-carbonyl]-4-[3-(2',2'-dimethylpropylamino)-2-pyridinyl]piperazine]	10000 nM	48%
